Assay results reported in patent US7659394B2 (Pfizer Inc, priority 2004, dated 2010).

What was measured:
[1] = biological target: T1, human norepinephrine transporter (Homo sapiens, UniProt P23975); assay: hNET receptor binding ([125I]-RTI-55 radioligand binding); conditions: membranes of HEK-293 cells transfected with human norepinephrine transporter, IC50 converted to Ki by Cheng-Prusoff, read-out: hNET (Ki)
T1 construct: host or cells: HEK-293
Summary of the method: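 Membranes from HEK-293 cells transfected with human NET. Nonspecific binding defined with 10 μM desipramine, duplicates. IC50 by nonlinear regression, converted to Ki with Cheng-Prusoff.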

[2] = biological target: T2, human seritonin transporter (Homo sapiens, UniProt P31645); assay: hSERT receptor binding ([125I]-RTI-55 radioligand binding); conditions: membranes of HEK-293 cells transfected with human seritonin transporter, IC50 converted to Ki by Cheng-Prusoff, read-out: SERT (Ki)
T2 construct: host or cells: HEK-293
T2 sequence (P31645 whole entry): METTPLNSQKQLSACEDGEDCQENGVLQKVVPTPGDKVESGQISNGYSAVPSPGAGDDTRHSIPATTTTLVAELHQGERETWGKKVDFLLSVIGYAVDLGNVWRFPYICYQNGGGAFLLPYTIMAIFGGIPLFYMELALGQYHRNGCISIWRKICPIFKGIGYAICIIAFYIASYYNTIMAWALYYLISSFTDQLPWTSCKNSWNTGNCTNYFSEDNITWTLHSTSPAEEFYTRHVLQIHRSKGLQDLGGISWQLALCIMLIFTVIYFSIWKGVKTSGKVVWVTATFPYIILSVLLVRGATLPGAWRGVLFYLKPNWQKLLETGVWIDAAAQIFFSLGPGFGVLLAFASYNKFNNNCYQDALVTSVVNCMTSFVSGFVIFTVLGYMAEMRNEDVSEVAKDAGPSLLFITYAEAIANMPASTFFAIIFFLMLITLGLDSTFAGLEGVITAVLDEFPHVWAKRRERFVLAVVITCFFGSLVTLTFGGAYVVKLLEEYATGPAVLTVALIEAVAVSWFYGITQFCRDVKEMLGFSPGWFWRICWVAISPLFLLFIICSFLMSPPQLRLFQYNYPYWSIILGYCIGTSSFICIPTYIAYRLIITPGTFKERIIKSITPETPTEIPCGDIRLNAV

T1 sequence (P23975 whole entry): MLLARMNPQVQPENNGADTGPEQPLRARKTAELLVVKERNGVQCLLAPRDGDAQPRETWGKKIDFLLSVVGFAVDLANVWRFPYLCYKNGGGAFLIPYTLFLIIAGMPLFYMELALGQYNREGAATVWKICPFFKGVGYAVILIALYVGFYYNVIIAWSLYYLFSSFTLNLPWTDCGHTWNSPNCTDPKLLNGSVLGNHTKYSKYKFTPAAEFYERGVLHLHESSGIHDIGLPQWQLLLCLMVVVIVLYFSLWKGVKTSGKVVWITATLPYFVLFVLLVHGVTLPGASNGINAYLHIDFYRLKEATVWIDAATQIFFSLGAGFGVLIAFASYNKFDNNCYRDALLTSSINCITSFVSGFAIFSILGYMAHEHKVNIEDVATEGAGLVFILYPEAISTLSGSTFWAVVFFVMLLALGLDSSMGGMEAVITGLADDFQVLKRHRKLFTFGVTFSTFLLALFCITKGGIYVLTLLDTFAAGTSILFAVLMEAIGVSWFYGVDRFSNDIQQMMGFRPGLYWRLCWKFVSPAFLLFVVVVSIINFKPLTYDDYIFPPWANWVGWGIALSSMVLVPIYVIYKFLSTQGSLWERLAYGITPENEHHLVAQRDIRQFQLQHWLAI

| SMILES | Ki [1] [µM] | Ki [2] [µM] |
| --- | --- | --- |
| Fc1ccc(F)c(O[C@@H](c2ccccc2)[C@@H]2CNCCO2)c1 [Example 96, (2S)-2-[(S)-(2,5-difluorophenoxy)(phenyl)methyl]morpholine] | 0.012 | 4.45 |
| CCCc1ccccc1O[C@@H](c1ccccc1)[C@@H]1CNCCO1 [Example 97, (2S)-2-[(S)-phenyl(2-propylphenoxy)methyl]morpholine] | 0.009 | 0.471 |
| CC(C)c1ccccc1O[C@@H](c1ccccn1)[C@@H]1CNCCO1 [Example 103, (2S)-2-[(S)-(2-isopropylphenoxy)(pyridin-2-yl)methyl]morpholine] | 0.013 | 6.07 |
| CCOc1ccccc1O[C@@H](c1cccc(C)n1)[C@@H]1CNCCO1 [Example 107, (2S)-2-[(S)-(2-ethoxyphenoxy)(6-methylpyridin-2-yl)methyl]morpholine] | 0.027 | 3.67 |
| CCOc1ccccc1O[C@@H](c1cccc(OC)n1)[C@@H]1CNCCO1 [Example 108, (2S)-2-[(S)-(2-ethoxyphenoxy)(6-methoxypyridin-2-yl)methyl]morpholine] | 0.028 | 0.676 |
| c1ccc([C@H](Oc2cccc3c2CCC3)[C@@H]2CNCCO2)nc1 [Example 110, (2S)-2-[(S)-(2,3-dihydro-1H-inden-4-yloxy)(pyridin-2-yl)methyl]morpholine] | 0.00857 | 0.356 |
| Fc1ccc(Oc2ncccc2O[C@@H](c2ccccc2)[C@@H]2CNCCO2)cc1 [Example 116, (2S)-2-[(S)-{[2-(4-fluorophenoxy)pyridin-3-yl]oxy}(phenyl)methyl]morpholine] | 0.063 | 1.33 |
| Fc1ccc(O[C@@H](c2ccccc2)[C@@H]2CNCCO2)c(C2CC2)c1 [Example 119, (2S)-2-[(S)-(2-cyclopropyl-4-fluorophenoxy)(phenyl)methyl]morpholine] | 0.023 | 0.066 |
| CCc1ncccc1O[C@@H](c1ccccc1)[C@@H]1CNCCO1 [Example 124, (2S)-2-[(S)-[(2-ethylpyridin-3-yl)oxy](phenyl)methyl]morpholine] | 0.03 | 0.346 |
| CCCc1ccccc1O[C@@H](c1ccccn1)[C@@H]1CNCCO1 [Example 127, (2S)-2-[(S)-(2-propylphenoxy)(pyridin-2-yl)methyl]morpholine] | 0.007 | 6.28 |
| c1ccc(Cc2ccccc2O[C@@H](c2ccccn2)[C@@H]2CNCCO2)cc1 [Example 128, (2S)-2-[(S)-(2-benzylphenoxy)(pyridin-2-yl)methyl]morpholine] | 0.011 | 3.32 |
| c1ccc([C@H](Oc2ccccc2C2CCCC2)[C@@H]2CNCCO2)nc1 [Example 132, (2S)-2-[(S)-(2-cyclopentylphenoxy)(pyridin-2-yl)methyl]morpholine] | 0.018 | 6.12 |
| FC(F)(F)c1ccccc1O[C@@H](c1ccccn1)[C@@H]1CNCCO1 [Example 133, (2S)-2-{(S)-pyridin-2-yl[2-(trifluoromethyl)phenoxy]methyl}morpholine] | 1.46 | 9.06 |
| CCCc1ncccc1O[C@@H](c1ccccc1)[C@@H]1CNCCO1 [Example 135, (2S)-2-{(S)-phenyl[(2-propylpyridin-3-yl)oxy]methyl}morpholine] | 0.032 | 4.48 |
| CCOc1ccccc1O[C@@H](c1ncccc1C)[C@@H]1CNCCO1 [Example 138, (2S)-2-[(S)-(2-ethoxyphenoxy)(3-methylpyridin-2-yl)methyl]morpholine] | 1.61 | 3.82 |
| COc1cccc([C@H](Oc2ccccc2OC(C)C)[C@@H]2CNCCO2)n1 [Example 140, (2S)-2-[(S)-(2-isopropoxyphenoxy)(6-methoxypyridin-2-yl)methyl]morpholine] | 0.071 | 0.763 |
| CCc1ccnc([C@H](Oc2c(F)cccc2OC)[C@@H]2CNCCO2)c1 [Example 141, (2S)-2-[(S)-(4-ethylpyridin-2-yl) (2-fluoro-6-methoxyphenoxy)methyl]morpholine] | 0.04 | 2.74 |
| FCCCc1ccccc1O[C@@H](c1ccccc1)[C@@H]1CNCCO1 [Example 145, (2S)-2-[(S)-[2-(3-fluoropropyl)phenoxy](phenyl)methyl]morpholine] | 0.045 | 4.14 |
| COc1cccc(OC)c1OC(c1ccccc1)[C@@H]1CNCCO1 (stereo partly drawn) [Example 148, (2S)-2-[(2,6-dimethoxyphenoxy)(phenyl)methyl]morpholine] | 0.069 | ≥ 10 |
| CCOc1ncccc1OC(CC(C)C)[C@@H]1CNCCO1 (stereo partly drawn) [Example 149, (2S)-2-{1-[(2-ethoxypyridin-3-yl)oxy]-3-methylbutyl}morpholine] | 0.009 | 2.31 |
| c1ccc([C@H](Oc2cccnc2C2CC2)[C@@H]2CNCCO2)cc1 [Example 150, (2S)-2-[(S)-[(2-cyclopropylpyridin-3-yl)oxy](phenyl)methyl]morpholine] | 0.02 | 2.03 |
| Fc1ccc(Cl)c(O[C@@H](c2ccccn2)[C@@H]2CNCCO2)c1 [Example 152, (2S)-2-[(S)-(2-chloro-5-fluorophenoxy)(pyridin-2-yl)methyl]morpholine] | 0.009 | 1.94 |

Now from value to compound:

| Ki [1] [µM] | Ki [2] [µM] | SMILES |
| --- | --- | --- |
| 0.022 | 1.14 | CCc1ccccc1O[C@@H](c1ccccc1)[C@@H]1CNCCO1 [Example 98, (2S)-2-[(S)-(2-ethylphenoxy)(phenyl)methyl]morpholine] |
| 0.082 | 5.74 | c1ccc(COc2ccccc2O[C@@H](c2ccccn2)[C@@H]2CNCCO2)cc1 [Example 102, (2S)-2-[(S)-[2-(benzyloxy)phenoxy](pyridin-2-yl)methyl]morpholine] |
| 0.016 | 0.364 | COc1cccc([C@H](Oc2ccccc2OC(F)(F)F)[C@@H]2CNCCO2)n1 [Example 109, (2S)-2-{(S)-(6-methoxypyridin-2-yl)[2-(trifluoromethoxy)phenoxy]methyl}morpholine] |
| 0.105 | 0.237 | Fc1ccc(C(Oc2c(F)cccc2F)[C@H]2CNCCO2)cc1 (stereo partly drawn) [Example 111, (2R)-2-[(2,6-difluorophenoxy)(4-fluorophenyl)methyl]morpholine] |
| 0.017 | 0.105 | Brc1ccccc1OC(c1ccccc1)[C@H]1CNCCO1 (stereo partly drawn) [Example 112, (2R)-2-[(2-bromophenoxy)(phenyl)methyl]morpholine] |
| 0.015 | 0.071 | Fc1cccc(Cl)c1O[C@@H](c1ccccc1)[C@@H]1CNCCO1 [Example 113, (2S)-2-[(S)-(2-chloro-6-fluorophenoxy)(phenyl)methyl]morpholine] |
| 0.035 | 0.075 | c1ccc(C(Oc2ccccc2C2CC2)[C@H]2CNCCO2)cc1 (stereo partly drawn) [Example 114, (2R)-2-[(2-cyclopropylphenoxy)(phenyl)methyl]morpholine] |
| 1.14 | ≥ 10 | CCOc1ccccc1OC(C1CC1)[C@@H]1CNCCO1 (stereo partly drawn) [Example 118, (2S)-2-[cyclopropyl(2-ethoxyphenoxy)methyl]morpholine] |
| 0.011 | 0.044 | Fc1cc(F)c(O[C@@H](c2ccccc2)[C@@H]2CNCCO2)c(C2CC2)c1 [Example 122, (2S)-2-[(S)-(2-cyclopropyl-4,6-difluorophenoxy)(phenyl)methyl]morpholine] |
| 0.011 | ≥ 10 | N#Cc1ccccc1O[C@@H](c1ccccn1)[C@@H]1CNCCO1 [Example 125, 2-[(S)-(2S)-morpholin-2-yl(pyridin-2-yl)methoxy]benzonitrile] |
| 0.032 | ≥ 10 | CC(C)Oc1ccccc1O[C@@H](c1ccccn1)[C@@H]1CNCCO1 [Example 126, (2S)-2-[(S)-(2-isopropoxyphenoxy)(pyridin-2-yl)methyl]morpholine] |
| 0.008 | 4.47 | FC(F)(F)Oc1ccccc1O[C@@H](c1ccccn1)[C@@H]1CNCCO1 [Example 129, (2S)-2-{(S)-pyridin-2-yl[2-(trifluoromethoxy)phenoxy]methyl}morpholine] |
| 0.457 | 7.06 | Cc1ccc(C(C)C)c(O[C@@H](c2ccccn2)[C@@H]2CNCCO2)c1 [Example 130, (2S)-2-[(S)-(2-isopropyl-5-methylphenoxy)(pyridin-2-yl)methyl]morpholine] |
| 0.388 | 0.099 | Cc1ncccc1O[C@@H](c1ccccc1)[C@@H]1CNCCO1 [Example 131, (2S)-2-[(S)-[(2-methylpyridin-3-yl)oxy](phenyl)methyl]morpholine] |
| 0.009 | 1.81 | CCOc1ncccc1O[C@@H](c1ccccc1)[C@@H]1CNCCO1 [Example 137, (2S)-2-[(S)-[(2-ethoxypyridin-3-yl)oxy](phenyl)methyl]morpholine] |
| 1.19 | 1.14 | Cc1cccnc1[C@H](Oc1ccccc1OC(F)(F)F)[C@@H]1CNCCO1 [Example 139, (2S)-2-{(S)-(3-methylpyridin-2-yl)[2-(trifluoromethoxy)phenoxy]methyl}morpholine] |
| 0.049 | 4.54 | CCOc1ccccc1O[C@@H](c1cc(CC)ccn1)[C@@H]1CNCCO1 [Example 142, (2S)-2-[(S)-(2-ethoxyphenoxy)(4-ethylpyridin-2-yl)methyl]morpholine] |
| 0.304 | 7.22 | CCOc1ncccc1O[C@@H](C)[C@@H]1CNCCO1 [Example 144, (2S)-2-{(1S)-1-[(2-ethoxypyridin-3-yl)oxy]ethyl}morpholine] |
| 2.57 | 2.53 | Fc1cccc(F)c1O[C@H](C1=CCCC1)[C@@H]1CNCCO1 [Example 147, (2S)-2-[(R)-cyclopent-1-en-1-yl(2,6-difluorophenoxy)methyl]morpholine] |
| 0.004 | 3.29 | CC(Oc1ccccc1Oc1ccc(F)cc1)[C@@H]1CNCCO1 (stereo partly drawn) [Example 151, (2S)-2-{1-[2-(4-fluorophenoxy)phenoxy]ethyl}morpholine] |
